Measurements from patent US20130172374A1, “SOLID COMPOSITION FOR CONTROLLED RELEASE OF IONIZABLE ACTIVE AGENTS WITH POOR AQUEOUS SOLUBILITY AT LOW PH AND METHODS OF USE THEREOF” (Portola Pharmaceuticals, Inc., priority 2008, published 2013).
Like-named read-outs stand apart in the source and are kept apart here.

Columns and labels:
[1] = known drug, background; cited from earlier work
[2] = known drug, background; cited from earlier work; remark: listed apart in the source
[3] = known drug, background; cited from earlier work; remark: listed apart in the source
[4] = logP; format: physicochemical
[5] = moisture sensitivity; format: physicochemical
[6] = pKa; format: physicochemical
[7] = aqueous solubility; format: physicochemical
[8] = logD (pH7.4); format: physicochemical

In the case of CC(C(=O)O)c1cccc(C(=O)c2ccccc2)c1 (racemic) [Ketoprofen, (RS)-2-(3-benzoylphenyl)propanoic acid], the pKa [1] is given as “about 5.94”, the “logD (pH7.4)” value [2] is given as “about 1.34” and the logP [3] is given as “about 0.97”.
For CNc1cc2[nH]c(=O)n(-c3ccc(NC(=O)NS(=O)(=O)c4ccc(Cl)s4)cc3)c(=O)c2cc1F.[K] [Compound 1, [4-(6-fluoro-7-methylamino-2,4-dioxo-1,4-dihydro-2H-quinazolin-3-yl)-phenyl]-5-chloro-thiophen-2-yl-sulfonylurea potassium salt], the logP [4] was “about 2.5”, the moisture sensitivity [5] was “moisture sensitive” and the pKa [6] was “about 3.3”. The aqueous solubility ([7]; at about 37° C.) was under 100 µg/mL, the “aqueous solubility of the free acid form” value ([7]; free acid form, pH 1.0-7.4) was under 100 µg/mL and the “logD (pH7.4)” value [8] was “about −1.6”.
For COc1ccc2c(c1)c(CC(=O)O)c(C)n2C(=O)c1ccc(Cl)cc1 [Indomethacin], the “logD (pH7.4)” value [2] is listed as “about 0.30” and the logP [3] is listed as “about 3.8”.
